Laboratory results as given in patent US20110224221A1, “HEMATOPOIETIC PROTECTION AGAINST IONIZING RADIATION USING SELECTIVE CYCLIN-DEPENDENT KINASE 4/6 INHIBITORS” (priority 2008, published 2011).
“Also recorded” adds a separate entry of the source.

Tests used:
[1] = system: tHDF cells; assay: γH2AX after IR; type: cell-based, human; settings: 24 hours prior to IR; PD0332991 100 nM (6 Gy), 2BrIC 2 μM (0-8 Gy)
From the text: FIG. 5A is a set of grayscale 40× images of phospho-γH2AX foci (nuclear) and phalloidin staining (cytoplasmic) of telomerized human diploid fibroblasts (tHDF) with (bottom row) and without (top row) 6 Gy ionizing radiation (IR). […] Scale bar=50 μm.
N=139 or greater for each condition; box=middle 50%, whiskers=0-25% and 75-100%. Significance determined by Kruskal-Wallis with Dunn post-hoc test for pairwise comparisons (*** p<0.0001).
FIG. 5F is a set of representative phospho-γH2AX (x-axis) dot plots after 0, 2, 4, 6, or 8 gray (Gy) of ionizing radiation with (right-hand column) or without (left-hand column) treatment with the selective cyclin-dependent kinase 4/6 (CDK4/6) inhibitor 2-bromo-12,13-dihydro-5H-indolo[2,3-a]pyrrolo[3,4]carbazole-5,6-dione (2BrIC) at 2 μM for 24 hours prior to exposure to ionizing radiation (IR). Cells that were not treated with 2BrIC were instead treated with vehicle (dimethyl sulfoxide (DMSO)) only. An increased fraction of phospho-γH2AX (x-axis) expressing cells is noted with increased doses of IR in DMSO treated cells.
γH2AX after IR: For γH2AX images, tHDF received 6 Gy IR with or without 24 hours of prior exposure to a CDK inhibitor. […] Images were analyzed for mean nuclear intensities were computed in ImageJ software (developed by the National Institutes of Health, Bethesda, Md., United States of America). […]

[2] = system: tHDF (HS68) cells; assay: Clonogenic assay after IR, tHDF (HS68); type: cell-based, human; settings: PD0332991 100 nM, 2BrIC 2 μM, CINK4 6 μM, IR 0-9 Gy
Description: FIG. 6A is a set of micrograph images of crystal violet stained cell cultures of cyclin-dependent kinase 4/6 (CDK4/6)-dependent cells (HS68) plated at different cell/well ratios and treated with either dimethyl sulfoxide (DMSO) as a negative control or with the selective CDK4/6 inhibitor 2-bromo-12,13-dihydro-5H-indolo[2,3-a]pyrrolo[3,4]carbazole-5,6-dione (2BrIC) at 2 μM for 24 hours prior to exposure to ionizing radiation at 0, 1.5, 3, 6, or 9 gray (Gy), as indicated.
Data plotted is the area/cell ratio of PD0332991 treated cells to dimethyl sulfoxide (DMSO) treated cells. Error bars show standard error of the mean.
FIG. 9A is a set of micrograph images of cell cultures of cyclin-dependent kinase 4/6 (CDK4/6)-dependent cells (HS68) plated at different cell/well ratios and pretreated with either dimethyl sulfoxide (DMSO) as a control or with the nonselective CDK4/6 inhibitor trans-4-[[6-ethylamino)-2-[[1-phenylmethyl)-1H-indol-5-yl]amino]-4-pyrimidinyl]amino]]-cyclohexanol (CINK4) at 6 μM for 24 hours prior to exposure to ionizing radiation at 0, 1.5, 3, 6, or 9 gray (Gy), as indicated. The plates were stained with crystal violet to visualize cell colonies.
Clonogenic Assay: The clonogenic assay was performed as previously described (see Franken et al., Nature protocols, 1, 2315-1319 (2006)) with cells plated in a six-well plate at least 6 hours prior to treatment with CDK inhibitor for 24 hours, with 6 Gy IR occurring 12 hours after initiation of CDK inhibitor exposure. Cells were grown for 16 days, washed, fixed, and stained with crystal violet. Plates were then imaged using an Odyssey infrared scanner (Li-Cor Biosciences, Lincoln, Nebr., United States of America) and quantified using the accompanying software.

[3] = system: tHDF cells; assay: Western blot of DNA damage response marker phospho-P53 after IR; type: cell-based, human; settings: treatment prior to IR; PD0332991 100 nM for 24 hours, 6 Gy
Description: FIG. 4A are images of Western blots of a DNA damage response marker (phospho-P53) in telomerized human diploid fibroblast (tHDF) cell lysates 3 hours after or 6 hours after a 6 gray (Gy) dose of ionizing radiation (IR) or following no IR, as indicated above the blot images. […] Actin western blot is shown as a loading control.
FIG. 4B is a bar graph showing the normalized phospho-P53 intensity in the telomerized human diploid fibroblast (tHDF) cells described in FIG. 4A.
Western Blots: Western blots were performed on cell lysates in NP-40 lysis buffer with protease inhibitors (Roche, Basel, Switzerland) and phosphatase inhibitors (Calbiochem, San Diego, Calif., United States of America) as previously described (see Ramsey et al., Cancer Res., 67, 4732-4741), using anti-p53-phospho-Ser15 (Cell Signaling Technology, Beverly, Mass., United States of America), Bax, p21, and actin-HRP (Santa Cruz Biotechnology, Inc., Santa Cruz, Calif., United States of America).

[4] = system: telomerized human diploid fibroblasts; assay: Comet tail assay after IR; type: cell-based; settings: 24 hours treatment prior to IR, 0-8 Gy
Description: Telomerized human diploid fibroblasts were irradiated and then immobilized. After immobilization, cell nuclei were exposed to an electric field by gel electrophoresis, with fragmented DNA migrating further than undamaged DNA.
Comet tail assay: Cells were seeded and allowed to adhere overnight in a 6 cm culture dish. Cells were then treated for 24 hours with a CDK4/6 inihibitor or dimethyl sulfoxide (DMSO) only. After 24 hours cells were irradiated as described. Cells were then fixed and treated as described in manufacturer instructions for the COMETASSAY™ purchased from Trevigen (Gaithersburg, Md., United States of America). In summary, cells were embedded in agarose, the membranes are permeabilized, DNA is denatured in alkali solution, and the DNA is mobilized using gel electrophoresis. Images of the comet tails were obtained by fluorescent microscopy (see Microscopy) and images were analyzed using CometScore software from TriTek Corp. (Sumerduck, Va., United States of America) at either 10× or 20× magnification.

SMILES: O=C1NC(=O)c2c1c1c3ccccc3[nH]c1c1[nH]c3cc(Br)ccc3c21 [Compound 2BrIC, 2-bromo-12,13-dihydro-5H-indolo[2,3-a]pyrrolo[3,4]-carbazole-5,6-dione]
- γH2AX formation after IR [1]: attenuated; also recorded: potently decreases IR-induced DNA damage; also recorded: decreases the induction of phospho-γH2AX expression
- clonogenic cell survival after IR (area/cell ratio relative to DMSO) [2]: enhanced clonogenic cell survival
- DNA damage response (phospho-P53) after IR [3]: attenuated
- DNA damage (comet tails) after IR [4]: attenuated; also recorded: potently reduce comet tail formation

SMILES: CC(=O)c1c(C)c2cnc(Nc3ccc(N4CCNCC4)cn3)nc2n(C2CCCC2)c1=O [PD0332991, 6-acetyl-8-cyclopentyl-5-methyl-2-(5-piperazin-1-yl-pyridin-2-ylamino)-8H-pyrido-[2,3-d]-pyrimidin-7-one]
- γH2AX formation after IR [1]: attenuated
- clonogenic cell survival after IR (area/cell ratio relative to DMSO) [2]: enhanced clonogenic cell survival
- DNA damage response (phospho-P53) after IR [3]: attenuated
- DNA damage (comet tails) after IR [4]: greatly attenuated; also recorded: potently reduce comet tail formation
